# Data taken from paper PMC12495412, “Coumarin/nitrogen-bearing heterocyclic hybrid-loaded electrospun PMMA/PVP nanofibrous scaffolds for accelerating topical wound healing rates: synthesis and in vitro bio-evaluation” (RSC Advances, 2025).
# Several values for one entry are separate records, joined by “and”; a condition that tells them apart may be missing. Equal entries are not always repeated.
# Key:
# S. typhimurium = experiment: Agar-well diffusion of synthesized compounds; type: cell-based, Salmonella typhimurium ATCC 14028; conditions: Salmonella enterica, 100 μL of 10 mg mL^−1 per well, 24 h, 37 °C
# Text: (§1) The antimicrobial activity of the prepared compounds was estimated through an agar-well diffusion method as adapted from the modified Kirby–Bauer protocol.[24] In this test, microbial pathogens were applied, including Staphylococcus aureus ATCC 25923 (S. aureus), Streptococcus mutans ATCC 25175 (S. mutans), Bacillus cereus ATCC 19637 (B. cereus), Bacillus aureus ATCC 25923 (B. aureus), Bacillus epidermidis ATCC 14990 (B. epidermidis), and Bacillus subtilis ATCC 11774 (B. subtilis) as Gram-positive bacteria, and Pseudomonas aeruginosa ATCC 27853 (P. aeruginosa), Klebsiella pneumonia ATCC 13883 (K. pneumonia), and Salmonella typhimurium ATCC 14028 (S. typhimurium), Salmonella pneumoniae ATCC 10031(S. pneumoniae), Escherichia coli ATCC 10536 (E. coli), and Salmonella paratyphi ATCC 9150 (S. paratyphi) as Gram-negative bacteria. Additionally, Candida albicans (ATCC 10231), Candida krusei ATCC 6258 (C. krusei), Candida glabrata ATCC 66032 (C. glabrata), andCandida parapsilosis ATCC 22019 (C. parapsilosis) were applied as models of unicellular fungi. The pre-inoculation cultures of the pathogens were prepared on Muller–Hinton broth and cultivated for 24 h at 37 °C. The agar-well test was prepared on Muller–Hinton agar with 100 μL of each pathogen pre-culture (0.5 McFarland conc.) and uniformly distributed on the plate surface. […]
# A549 cells [1] = experiment: MTT anticancer assay; type: cell-based, human; conditions: Homo sapiens, A549, lung carcinoma cells, 48 h
# Text: (§2) MTT assay: the normal cell line (Wi-38), colon cancer (Caco-2), lung cancer (A549), and breast cancer (MDA) cell lines were sourced from ATCC, USA. All different cell lines were cultivated and preserved in DMEM medium (SERANA, Germany), accompanied by 10% FBS (Gibco, USA) and 1% Pen/Strep solution (Lonza, USA). The newly prepared derivatives at various doses were considered for their anticancer activity and their safety on normal cells, applying MTT (3-[4, 5-dimethylthiazol]-2, 5-diphenyltetrazolium bromide) methods.[22] At first, all normal and cancer cell lines (1.0 ×10^4) were inoculated in 4 antiseptic 96-well tissue culture microplates and incubated for 24 h in a CO2 incubator. After cell attachments, the prepared derivatives were added to both normal Wi-38 cells at diverse concentrations of (6.25–200 μg mL^−1, 2-fold) and cancer cells at different concentrations of (3.125–100 μg mL^−1, 2-fold) in triplicate and incubated for another 48 h at 37 °C in a CO2 incubator with an adjusted concentration of 5%. After that, the treated cells were cleaned three times with PBS to remove debris and dead cells. Next, 200 μL of 0.5 mg mL^−1 MTT dye solution in PBS was mixed in each well, and the cells were further kept for 3 h at 37 °C in a 5% CO2 incubator. After that, MTT was removed and 200 μL of DMSO was added to each well. The optical density (OD) was recorded at 570 nm via a microplate reader (B.M.G. LabTech, Germany). Basic cells (untreated) were utilized as negative control cells, and 5-fluorouracil (5-FU) was included as a standard chemotherapy drug. The qualified cell viability (%) was evaluated as in equation (eqn (1)):1 Relative cell viability (%) = […] A1 is the OD of the examined derivative, A0 is the OD of the standard, and AU is the OD of the untreated cells.
# (§3) Anticancer activity assay: the anticancer effect of each derivative was assessed by evaluating the half-maximal inhibitory concentration (IC50) value via the GraphPad Prism 7.0 software. However, SI (selective index) values of each derivative were estimated by splitting the IC50 value of healthy cells by the IC50 value of malignant cells, as previously reported.[23] The effects of the created derivatives on the morphology of MDA cells were evaluated at IC50 doses and captured by phase-contrast microscopy (Olympus, Germany) in comparison to untreated control cells.
# MDA cells = experiment: MTT anticancer assay; type: cell-based, human; conditions: Homo sapiens, Breast carcinoma cell, 48 h
# Text: as §2, §3
# S. aureus = experiment: Agar-well diffusion of synthesized compounds; type: cell-based, Staphylococcus aureus ATCC 25923; conditions: Staphylococcus aureus, 100 μL of 10 mg mL^−1 per well, 24 h, 37 °C
# Text: as §1
# S. mutans = experiment: Agar-well diffusion of synthesized compounds; type: cell-based, Streptococcus mutans ATCC 25175; conditions: Streptococcus mutans, 100 μL of 10 mg mL^−1 per well, 24 h, 37 °C
# Text: (§4) The antimicrobial activity of the prepared compounds was estimated through an agar-well diffusion method as adapted from the modified Kirby–Bauer protocol.[24] In this test, microbial pathogens were applied, including Staphylococcus aureus ATCC 25923 (S. aureus), Streptococcus mutans ATCC 25175 (S. mutans), Bacillus cereus ATCC 19637 (B. cereus), Bacillus aureus ATCC 25923 (B. aureus), Bacillus epidermidis ATCC 14990 (B. epidermidis), and Bacillus subtilis ATCC 11774 (B. subtilis) as Gram-positive bacteria, and Pseudomonas aeruginosa ATCC 27853 (P. aeruginosa), Klebsiella pneumonia ATCC 13883 (K. pneumonia), and Salmonella typhimurium ATCC 14028 (S. typhimurium), Salmonella pneumoniae ATCC 10031(S. pneumoniae), Escherichia coli ATCC 10536 (E. coli), and Salmonella paratyphi ATCC 9150 (S. paratyphi) as Gram-negative bacteria. Additionally, Candida albicans (ATCC 10231), Candida krusei ATCC 6258 (C. krusei), Candida glabrata ATCC 66032 (C. glabrata), andCandida parapsilosis ATCC 22019 (C. parapsilosis) were applied as models of unicellular fungi. The pre-inoculation cultures of the pathogens were prepared on Muller–Hinton broth and cultivated for 24 h at 37 °C. The agar-well test was prepared on Muller–Hinton agar with 100 μL of each pathogen pre-culture (0.5 McFarland conc.) and uniformly distributed on the plate surface. Under aseptic conditions, six wells were created on the agar surface using a sterile corkborer (9 mm). To each well, 100 μL of the prepared compound (10 mg mL^−1) was separately inserted into each plate. All plates were incubated for 24 h at 37 °C; the established inhibition zones (Halo-zones) surrounding the wells indicated positive antimicrobial activity and were stated as the radius of the inhibition zone (mm).
# all applied pathogens = experiment: Agar-well diffusion of synthesized compounds, whole panel; type: cell-based
# Text: as §4
# Caco-2 cells = experiment: MTT anticancer assay; type: cell-based
# Text: as §2, §3
# A549 cells [2] = experiment: Wound healing scratch (anti-migration) assay; type: cell-based, human; conditions: IC50 doses, 48 h
# Experimental: To assess the anti-migration inhibition capability of newly synthesized derivatives, a wound healing technique was employed. A549 cells were planted in 12-well plates and kept alive at 37 °C until they achieved 80–90% fluency. The cell monolayers were smashed with a sterile tip and exposed to the prepared derivatives at IC50 doses. At 0 and 48 h of treatment, the wound closure area was captured and calculated by imaging analysis with the Cell-Sens software (Olympus, Japan).
# Wi-38 cells = experiment: MTT cytotoxicity assay, normal cells; type: cell-based; conditions: WI-38, normal human lung fibroblast cells, 48 h
# Text: as §2, §3
structure (smiles),measurement,setting,value
"Cc1ccc(-c2nnc(Nc3ccc(NC(=O)c4cc5ccccc5oc4=O)cc3)c3ccccc23)cc1 [Compound C, 2-oxo-N-(4-((4-(p-tolyl)phthalazin-1-yl)amino)phenyl)-2H-chromene-3-carboxamide]",zone of inhibition at 10 mg/mL,S. typhimurium,~15.5 mm
same,IC50,A549 cells [1],12.2 ± 1.36 µg/mL
same,IC50,MDA cells,6.06 ± 0.81 µg/mL
same,zone of inhibition at 10 mg/mL,S. aureus,~19.5 mm
same,zone of inhibition at 10 mg/mL,S. mutans,~17.2 mm
same,Antimicrobial activity,all applied pathogens,wide-spectrum antibacterial activity
same,IC50,"Caco-2 cells; Homo sapiens, Caco-2, colon carcinoma cells, MTT, 48 h",7.11 ± 1.68 µg/mL
same,SI Caco-2,Caco-2 cells; IC50 Wi-38 / IC50 Caco-2,19.25 ± 1.36
same,Migration inhibition,A549 cells [2],74.45% and 79.09%
same,IC50,Wi-38 cells,137 ± 11.7 µg/mL
